Measured values as given in patent US20090181898A1, “ABUSE-RESISTANT A[…]” (SHIRE LLC, priority 2002, published 2009).
Marks after values point to notes of the source that are not given here.

How the values were obtained:
rats [1] = experiment: Horizontal locomotor activity after oral administration; assay type: in vivo, Sprague-Dawley rats; parameters: Time of Peak (Counts per 0.2 h): unit not given here; conditions: rats, oral gavage 6 mg/kg
rats [2] = experiment: Locomotor activity after intranasal administration with and without CMC; assay type: in vivo, Sprague-Dawley rats; conditions: rats, intranasal 1.0 mg/kg, 1 h
Text: The CMC drug mixtures were suspended thoroughly before each dose was delivered.

rats [3] = experiment: Locomotor activity after intravenous administration; assay type: in vivo, Sprague-Dawley rats; conditions: rat, 1.0 mg/kg
[4] = Intranasal bioavailability (LC/MS/MS); conditions: rat, intranasal, 3 mg/kg
[5] = Oral bioavailability at escalating doses (LC/MS/MS); conditions: rat; for AUC0-8 of d-amphetamine / AUCinf of d-amphetamine / F of d-amphetamine / Tmax of d-amphetamine / Cmax of d-amphetamine / AUCinf alt. calc. of d-amphetamine: oral; for Cmax of d-amphetamine: LC/MS/MS; for AUCinf alt. calc. of d-amphetamine: WinNonlin, in ng·h/mL
stimulant abusers = experiment: Abuse liability of intravenous L-lysine-d-amphetamine in stimulant abusers; conditions: d-amphetamine 20 mg
anesthetized dog = experiment: Cardiovascular effects following intravenous injection in the anesthetized dog; conditions: iv 0.202 mg/kg
[6] = IV, L-lysine-d-amphetamine 50 mg

In the case of d-amphetamine, the “Peak of activity (Counts per 0.2 h)” value (rats [1]; 5 h experiment) is reported as 291 Counts per 0.2 h, the “Time of Last Count Above 200 per 0.2 h” value (rats [1]; 5 h experiment) is reported as 2.6 h and the “Time of Peak (Counts per 0.2 h)” value (rats [1]; 5 h experiment) is reported as 0.6. For the same substance, the “Total Activity Counts” value (rats [1]; 5 h experiment) was 515, the “Total Activity Counts Above Baseline” value (rats [1]; 5 h experiment) was 0 and the “Peak of activity (Counts per 0.2 h)” value (rats [1]; 12 h experiment) was 223 Counts per 0.2 h. The “Time of Last Count Above 200 per 0.2 h” value (rats [1]; 12 h experiment) was 6.4 h, the “Time of Peak (Counts per 0.2 h)” value (rats [1]; 12 h experiment) was 0.6 and the “Total Activity Counts” value (rats [1]; 12 h experiment) was 6622. For the same substance, the “Total Activity Counts Above Baseline” value (rats [1]; 12 h experiment) was 5686, the “Total Activity Counts (1 h)” value (rats [2]) was 858 and the “Total Activity Counts Above Baseline” value (rats [2]) was 686. For the same substance, the “Total Activity Counts (3 h)” value (rats [3]) was 1659, the “Activity above baseline, Percent Amp” value (rats [3]; 3 h) was 100% and the “Total Activity Counts Above Baseline” value (rats [3]; 3 h) was 1355. For the same substance, the AUC0-1 of d-amphetamine [4] was 1032 ng·h/mL, the AUCinf of d-amphetamine [4] was 7291 ng·h/mL and the Cmax of d-amphetamine ([4]; LC/MS/MS) was 1962.9 ng/mL. For the same substance, the “AUCinf alt. calc. of d-amphetamine” value ([4]; in ng·h/mL) was 1,267, the “AUC (0-1.5) of d-amphetamine” value ([5]; in vivo, po, 60 mg/kg) was 14,281** ng · h/mL and the AUC0-8 of d-amphetamine ([5]; 3 mg/kg) was 885 ng·h/mL. The AUCinf of d-amphetamine ([5]; 3 mg/kg) was 921 ng·h/mL, the F of d-amphetamine ([5]; 3 mg/kg) was 84% and the Tmax of d-amphetamine ([5]; 3 mg/kg) was 90 min. For the same substance, the Cmax of d-amphetamine ([5]; 3 mg/kg) was 217.2 ng/mL, the “AUCinf alt. calc. of d-amphetamine” value ([5]; 3 mg/kg) was 1,059 and the AUC0-8 of d-amphetamine ([5]; 6 mg/kg) was 1,319 ng · h/mL. The AUCinf of d-amphetamine ([5]; 6 mg/kg) was 1,362 ng · h/mL, the F of d-amphetamine ([5]; 6 mg/kg) was 62% and the Tmax of d-amphetamine ([5]; 6 mg/kg) was 15 min. For the same substance, the Cmax of d-amphetamine ([5]; 6 mg/kg) was 815.3 ng/mL, the “AUCinf alt. calc. of d-amphetamine” value ([5]; 6 mg/kg) was 1429 and the AUC0-8 of d-amphetamine ([5]; 12 mg/kg) was 4,252 ng · h/mL. The AUCinf of d-amphetamine ([5]; 12 mg/kg) was 4,428 ng · h/mL, the F of d-amphetamine ([5]; 12 mg/kg) was 101% and the Tmax of d-amphetamine ([5]; 12 mg/kg) was 15 min. The Cmax of d-amphetamine ([5]; 12 mg/kg) was 1,533.1 ng/mL, the “AUCinf alt. calc. of d-amphetamine” value ([5]; 12 mg/kg) was 4,636 and the AUCinf of d-amphetamine ([5]; 60 mg/kg) was 48,707 ng · h/mL. The F of d-amphetamine ([5]; 60 mg/kg) was 223%, the Tmax of d-amphetamine ([5]; 60 mg/kg) was 60 min and the Cmax of d-amphetamine ([5]; 60 mg/kg) was 13,735 ng/mL. The “AUCinf alt. calc. of d-amphetamine” value ([5]; 60 mg/kg) was 48,707, the Tmax of d-amphetamine ([5]; […]) was 30 min and the “Time of mean peak plasma level of d-amphetamine” value (stimulant abusers; IV) was 5 min. For the same substance, the “Time of mean peak responses” value (stimulant abusers; IV) was 15 min, the “Mean maximum response on Subject Liking VAS vs placebo” value (stimulant abusers; [6]) was “significantly greater than placebo” and the “Subjects (of 9) who would take the treatment again” value (stimulant abusers; [6]) was “Six”. For the same substance, the “Mean peak plasma level of d-amphetamine” value (stimulant abusers; stimulant abusers, IV over 2 minutes, L-lysine-d-amphetamine 50 mg) was 77.7 ng/mL, the “DAP % Change” value (anesthetized dog; Time 0) was 0% and the “LVP % Change” value (anesthetized dog; Time 0) was 0%. For the same substance, the “MAP % Change” value (anesthetized dog; Time 0) was 0%, the “MAP mean arterial pressure” value (anesthetized dog; Time 0) was 84 mmHg and the “SAP % Change” value (anesthetized dog; Time 0) was 0%. For the same substance, the “SAP systolic arterial pressure” value (anesthetized dog; Time 0) was 111 mmHg, the “DAP % Change” value (anesthetized dog; Time 5) was 117% and the “LVP % Change” value (anesthetized dog; Time 5) was 107%. The “MAP % Change” value (anesthetized dog; Time 5) was 109%, the “MAP mean arterial pressure” value (anesthetized dog; Time 5) was 176 mmHg and the “SAP % Change” value (anesthetized dog; Time 5) was 97%. The “SAP systolic arterial pressure” value (anesthetized dog; Time 5) was 218 mmHg, the “DAP % Change” value (anesthetized dog; Time 15) was 45% and the “LVP % Change” value (anesthetized dog; Time 15) was 52%. The “MAP % Change” value (anesthetized dog; Time 15) was 49%, the “MAP mean arterial pressure” value (anesthetized dog; Time 15) was 125 mmHg and the “SAP % Change” value (anesthetized dog; Time 15) was 52%. The “SAP systolic arterial pressure” value (anesthetized dog; Time 15) was 168 mmHg, the “DAP % Change” value (anesthetized dog; Time 25) was 30% and the “LVP % Change” value (anesthetized dog; Time 25) was 37%.
